Measured values from patent US8754054B2, “Antibacterial compounds, methods of making them, and uses thereof” (Albany Molecular Research, Inc., priority 2010, dated 2014).
Values after ≈ are worked out from the molar mass of the structure shown.

test system: MRSA 43300; test: Antibacterial activity, NCCLS dilution method (Table 9); type: cell-based, S. aureus; conditions: Staphylococcus aureus, MRSA, MRSA 43300; dilution method; labels marked a tested as a mixture of diastereomers; read-out: MRSA 43300 MIC
From the text: NCCLS standards for antimicrobial susceptibility testing using the dilution method were followed. See: Performance Standards for Antimicrobial Susceptibility Testing; Fourteenth Informational Supplement. NCCLS Document M100-S14 (ISBN 1-56238-516-X), 2004. NCCLS, 940 West Valley Road, Suite 1400, Wayne, Pa. 19087-1898 USA, 2004; Methods for Dilution Antimicrobial Susceptibility Tests for Bacteria that Grow Aerobically; Approved Standard—Sixth Edition. NCCLS document M7-A6 (IBSBN 1-56238-486-4), NCCLS, 940 West Valley Road, Suite 1400, Wayne, Pa. 19087-1898 USA, 2003, which are hereby incorporated by reference in their entirety.

Structure (SMILES) | MIC [µg/mL]
COC(=O)c1c(C)cc2c(c1O)[C@]1(O)C(=O)c3cc4c(c(O)c3C(=O)[C@]1(OC)[C@H](O)C2)C(=O)C=C(N[C@H]1O[C@@H](C)[C@H](OC)[C@@H](O)[C@H]1OC)C4(O)c1ccccc1 (single isomer, unassigned) [Example 56] | 8 (≈ 10.3 µM)
COC(=O)c1c(C)cc2c(c1O)[C@]1(O)C(=O)c3cc4c(c(O)c3C(=O)[C@]1(OC)[C@H](O)C2)C(=O)C=C(N[C@H]1O[C@@H](C)[C@H](OC)[C@@H](O)[C@H]1OC)C4(O)c1ccc(F)cc1 (single isomer, unassigned) [Example 58] | 8 to 16 (≈ 10.1 to 20.2 µM)
COC(=O)c1c(C)cc2c(c1O)[C@]1(O)C(=O)c3cc4c(c(O)c3C(=O)[C@]1(OC)[C@H](O)C2)C(=O)C=C(N[C@H]1O[C@@H](C)[C@H](OC)[C@@H](O)[C@H]1OC)C4=O [Example 2, (6R,6aS,14aR)-methyl 1,6,8,14a-tetrahydroxy-11-((2S,3R,4R,5R,6S)-4-hydroxy-3,5-dimethoxy-6-methyltetrahydro-2H-pyran-2-ylamino)-6a-methoxy-3-methyl-7,9,12,14-tetraoxo-5,6,6a,7,9,12,14,14a-octahydrobenzo[a]tetracene-2-carboxylate] | 0.008 (≈ 0.0115 µM)
COC(=O)c1c(C)cc2c(c1OC)[C@]1(O)C(=O)c3cc4c(c(O)c3C(=O)[C@]1(OC)[C@H](O)C2)C(=O)C=C(N[C@H]1O[C@@H](C)[C@H](OC)[C@@H](O)[C@H]1OC)C4=O [Example 4, (6R,6aS,14aR)-Methyl 6,8,14a-trihydroxy-11-((2S,3R,4R,5R,6S)-4-hydroxy-3,5-dimethoxy-6-methyltetrahydro-2H-pyran-2-ylamino)-1,6a-dimethoxy-3-methyl-7,9,12,14-tetraoxo-5,6,6a,7,9,12,14,14a-octahydrobenzo[a]tetracene-2-carboxylate] | 0.06 to 0.12 (≈ 0.0843 to 0.169 µM)
COC(=O)COc1c(C(=O)OC)c(C)cc2c1[C@]1(O)C(=O)c3cc4c(c(O)c3C(=O)[C@]1(OC)[C@H](O)C2)C(=O)C=C(N[C@H]1O[C@@H](C)[C@H](OC)[C@@H](O)[C@H]1OC)C4=O [Example 6, (6R,6aS,14aR)-Methyl 6,8,14a-trihydroxy-11-((2S,3R,4R,5R,6S)-4-hydroxy-3,5-dimethoxy-6-methyltetrahydro-2H-pyran-2-ylamino)-6a-methoxy-1-(2-methoxy-2-oxoethoxy)-3-methyl-7,9,12,14-tetraoxo-5,6,6a,7,9,12,14,14a-octahydrobenzo[a]tetracene-2-carboxylate] | 0.12 (≈ 0.156 µM)
COC(=O)c1c(C)cc2c(c1OCc1ccccc1)[C@]1(O)C(=O)c3cc4c(c(O)c3C(=O)[C@]1(OC)[C@H](O)C2)C(=O)C=C(N[C@H]1O[C@@H](C)[C@H](OC)[C@@H](O)[C@H]1OC)C4=O [Example 7, (6R,6aS,14aR)-Methyl 1-(benzyloxy)-6,8,14a-trihydroxy-11-((2S,3R,4R,5R,6S)-4-hydroxy-3,5-dimethoxy-6-methyltetrahydro-2H-pyran-2-ylamino)-6a-methoxy-3-methyl-7,9,12,14-tetraoxo-5,6,6a,7,9,12,14,14a-octahydrobenzo[a]tetracene-2-carboxylate] | 0.12 (≈ 0.152 µM)
COC(=O)c1c(C)cc2c(c1OCC(=O)OCc1ccccc1)[C@]1(O)C(=O)c3cc4c(c(O)c3C(=O)[C@]1(OC)[C@H](O)C2)C(=O)C=C(N[C@H]1O[C@@H](C)[C@H](OC)[C@@H](O)[C@H]1OC)C4=O [Example 8, (6R,6aS,14aR)-Methyl 1-(2-(benzyloxy)-2-oxoethoxy)-6,8,14a-trihydroxy-11-((2S,3R,4R,5R,6S)-4-hydroxy-3,5-dimethoxy-6-methyltetrahydro-2H-pyran-2-ylamino)-6a-methoxy-3-methyl-7,9,12,14-tetraoxo-5,6,6a,7,9,12,14,14a-octahydrobenzo[a]tetracene-2-carboxylate] | 1 (≈ 1.18 µM)
COC(=O)c1c(C)cc2c(c1OCC(=O)O)[C@]1(O)C(=O)c3cc4c(c(O)c3C(=O)[C@]1(OC)[C@H](O)C2)C(=O)C=C(NC1O[C@@H](C)[C@H](OC)[C@@H](O)[C@H]1OC)C4=O (stereo partly drawn) [Example 9, 2-((6R,6aS,14aR)-6,8,14a-Trihydroxy-11-((3R,4R,5R,6S)-4-hydroxy-3,5-dimethoxy-6-methyltetrahydro-2H-pyran-2-ylamino)-6a-methoxy-2-(methoxycarbonyl)-3-methyl-7,9,12,14-tetraoxo-5,6,6a,7,9,12,14,14a-octahydrobenzo[a]tetracen-1-yloxy)acetic acid] | 32 (≈ 42.3 µM)
COC(=O)c1c(C)cc2c(c1OCC(N)=O)[C@]1(O)C(=O)c3cc4c(c(O)c3C(=O)[C@]1(OC)[C@H](O)C2)C(=O)C=C(NC1O[C@@H](C)[C@H](OC)[C@@H](O)[C@H]1OC)C4=O (stereo partly drawn) [Example 10, (6R,6aS,14aR)-Methyl 1-(2-amino-2-oxoethoxy)-6,8,14a-trihydroxy-11-((3R,4R,5R,6S)-4-hydroxy-3,5-dimethoxy-6-methyltetrahydro-2H-pyran-2-ylamino)-6a-methoxy-3-methyl-7,9,12,14-tetraoxo-5,6,6a,7,9,12,14,14a-octahydrobenzo[a]tetracene-2-carboxylate] | 32 (≈ 42.4 µM)
COC(=O)c1c(C)cc2c(c1OCc1cccnc1)[C@]1(O)C(=O)c3cc4c(c(O)c3C(=O)[C@]1(OC)[C@H](O)C2)C(=O)C=C(N[C@H]1O[C@@H](C)[C@H](OC)[C@@H](O)[C@H]1OC)C4=O.Cl [Example 11, (6R,6aS,14aR)-Methyl 6,8,14a-trihydroxy-11-((2S,3R,4R,5R,6S)-4-hydroxy-3,5-dimethoxy-6-methyltetrahydro-2H-pyran-2-ylamino)-6a-methoxy-3-methyl-7,9,12,14-tetraoxo-1-(pyridin-3-ylmethoxy)-5,6,6a,7,9,12,14,14a-octahydrobenzo[a]tetracene-2-carboxylate hydrochloride] | 0.12 to 0.25
COC(=O)c1c(C)cc2c(c1OCC(=O)N1CCCCC1)[C@]1(O)C(=O)c3cc4c(c(O)c3C(=O)[C@]1(OC)[C@H](O)C2)C(=O)C=C(N[C@H]1O[C@@H](C)[C@H](OC)[C@@H](O)[C@H]1OC)C4=O [Example 12, (6R,6aS,14aR)-Methyl 6,8,14a-trihydroxy-11-((2S,3R,4R,5R,6S)-4-hydroxy-3,5-dimethoxy-6-methyltetrahydro-2H-pyran-2-ylamino)-6a-methoxy-3-methyl-7,9,12,14-tetraoxo-1-(2-oxo-2-(piperidin-1-yl)ethoxy)-5,6,6a,7,9,12,14,14a-octahydrobenzo[a]tetracene-2-carboxylate] | 0.25 to 1 (≈ 0.304 to 1.22 µM)
CO[C@@H]1[C@@H](O)[C@@H](OC)[C@@H](NC2=CC(=O)c3c(cc4c(c3O)C(=O)[C@]3(OC)[C@H](O)Cc5cc(C)c(C(=O)O)c(O)c5[C@]3(O)C4=O)C2=O)O[C@H]1C [Example 13, (6R,6aS,14aR)-1,6,8,14a-Tetrahydroxy-11-((2S,3R,4R,5R,6S)-4-hydroxy-3,5-dimethoxy-6-methyltetrahydro-2H-pyran-2-ylamino)-6a-methoxy-3-methyl-7,9,12,14-tetraoxo-5,6,6a,7,9,12,14,14a-octahydrobenzo[a]tetracene-2-carboxylic acid] | 32 (≈ 46.8 µM)
CO[C@@H]1[C@@H](O)[C@@H](OC)[C@@H](NC2=CC(=O)c3c(cc4c(c3O)C(=O)[C@]3(OC)[C@H](O)Cc5cc(C)c(C(N)=O)c(O)c5[C@]3(O)C4=O)C2=O)O[C@H]1C [Example 20, (6R,6aS,14aR)-1,6,8,14a-Tetrahydroxy-11-((2S,3R,4R,5R,6S)-4-hydroxy-3,5-dimethoxy-6-methyltetrahydro-2H-pyran-2-ylamino)-6a-methoxy-3-methyl-7,9,12,14-tetraoxo-5,6,6a,7,9,12,14,14a-octahydrobenzo[a]tetracene-2-carboxamide] | 2 (≈ 2.93 µM)
